Laboratory results taken from patent US9040524B2, “Antifungal 5,6-dihydro-4H-pyrrolo[1,2-a][1,4]-benzodiazepines and 6H-pyrrolo[1,2-a][1,4]benzodiazepines substituted with bicycle benzene derivatives” (JANSSEN PHARMACEUTICA NV, priority 2010, dated 2015).

Key:
Type in all cases: cell-based
[1] = system: Sporothrix schenkii; test: Antifungal activity in vitro, resazurin growth inhibition screen: Sporothrix schenkii; details: Sporothrix schenkii B62482
Method: (§1) The standard susceptibility screen was performed in 96-well plates (U-bottom, Greiner Bio-One). Serial dilutions (2-fold or 4-fold) of 20 mM compound stock solutions were made in 100% DMSO, followed by an intermediate dilution step in water. These serial dilutions (10 μl) were then spotted onto test-plates that could be stored in the dark at 4° C. for a maximum period of 2 weeks. An adequate broad dose-range was included with 64 μM as the highest in-test concentration. […] The different fungal species/isolates (Table 3a) were cryopreserved and 1/1000 diluted in medium just prior to use. A standard inoculum of 200 μl containing 10^3 colony-forming unit (cfu) was then added to each well. A positive control (100% growth=fungal culture without antifungal) and a negative control (0% growth=RPMI-MOPS medium) were included on each plate.

[2] = system: Trichophyton rubrum; test: Antifungal activity in vitro, resazurin growth inhibition screen: Trichophyton rubrum; details: Trichophyton rubrum B68183
Method: as §1

[3] = system: Microsporum canis; test: Antifungal activity in vitro, resazurin growth inhibition screen: Microsporum canis; details: Microsporum canis B68128
Method: as §1

[4] = system: Candida parapsilosis; test: Antifungal activity in vitro, resazurin growth inhibition screen: Candida parapsilosis; details: Candida parapsilosis B66126
Method: as §1

[5] = system: Trichophyton mentagrophytes; test: Antifungal activity in vitro, resazurin growth inhibition screen: Trichophyton mentagrophytes; details: Trichophyton mentagrophytes B70554
Method: as §1

[6] = system: Aspergillus fumigatus; test: Antifungal activity in vitro, resazurin growth inhibition screen: Aspergillus fumigatus; details: Aspergillus fumigatus B42928
Method: as §1

[7] = system: Cryptococcus neoformans; test: Antifungal activity in vitro, resazurin growth inhibition screen: Cryptococcus neoformans; details: Cryptococcus neoformans B66663
Method: as §1

IC50 ([1]; read-out: Inf. A pIC50 (converted)) [µM]	IC50 ([2]; read-out: Inf. C pIC50 (converted)) [µM]	IC50 ([3]; read-out: Inf. B pIC50 (converted)) [µM]	IC50 ([4]; Lodderomyces parapsilosis, read-out: Inf. D pIC50 (converted)) [µM]	IC50 ([5]; read-out: Inf. G pIC50 (converted)) [µM]	IC50 ([6]; read-out: Inf. E pIC50 (converted)) [µM]	IC50 ([7]; read-out: Inf. F pIC50 (converted)) [µM]	SMILES	Inf. A pIC50 [1]	Inf. C pIC50 [2]	Inf. B pIC50 [3]	Inf. D pIC50 [4]	Inf. G pIC50 [5]	Inf. E pIC50 [6]	Inf. F pIC50 [7]
							Br.Clc1ccc2c(c1)-n1cccc1C(c1ccc3c(c1)OCO3)NC2 (stereo not shown) [Compound 6, 4-(1,3-benzodioxol-5-yl)-9-chloro-5,6-dihydro-4H-pyrrolo[1,2-a][1,4]benzo-diazepine .HBr]	4.21	5.15	5.00	<4.19	4.50	<4.19	5.10
							Br.CCOc1cc2c(cc1C1NCc3c(Cl)cccc3-n3cccc31)OC(C)C2 (stereo not shown) [Compound 50, 7-chloro-4-(5-ethoxy-2,3-dihydro-2-methyl-6-benzofuranyl)-5,6-dihydro-4H-pyrrolo[1,2-a][1,4]benzodiazepine .HBr]	<4.19	5.52	4.92	<4.19	<4.19	<4.19	4.74
							Cl.Clc1ccc(Cl)c2c1CNC(c1ccc3c(c1)OCC3)c1cccn1-2 (stereo not shown) [Compound 33, 7,10-dichloro-4-(2,3-dihydro-6-benzofuranyl)-5,6-dihydro-4H-pyrrolo[1,2-a][1,4]-benzodiazepine .HCl]	<4.19	5.15	5.52	<4.19	<4.19	<4.19	<4.19
							Cl.Clc1ccc2c(c1Cl)CNC(c1ccc3c(c1)CCC3)c1cccn1-2 (stereo not shown) [Compound 18, 7,8-dichloro-4-(2,3-dihydro-1H-inden-5-yl)-5,6-dihydro-4H-pyrrolo[1,2-a][1,4]-benzodiazepine .HCl]	<4.19	5.70	4.62	<4.19	5.26	4.67	<4.19
							FC1(F)CCc2cc(C3=NCc4ccc(Cl)cc4-n4cccc43)ccc21 [Compound 67, 9-chloro-4-(1,1-difluoro-2,3-dihydro-1H-inden-5-yl)-6H-pyrrolo[1,2-a][1,4]benzo-diazepine]	5.10	<4.19	5.09	5.90	5.09	5.10	5.36
							Clc1ccc(Cl)c2c1CN=C(c1ccc3c(c1)OCC3)c1cccn1-2 [Compound 47, 7,10-dichloro-4-(2,3-dihydro-6-benzofuranyl)-6H-pyrrolo[1,2-a][1,4]benzo-diazepine]	<4.19	5.92	5.40	<4.19	<4.19	<4.19	<4.19
							Br.COc1cc2c(cc1C1NCc3c(Cl)cccc3-n3cccc31)CCCC2 (stereo not shown) [Compound 15, 7-chloro-5,6-dihydro-4-(5,6,7,8-tetrahydro-3-methoxy-2-naphthalenyl)-4H-pyrrolo-[1,2-a][1,4]benzodiazepine .HBr]	<4.19	5.40	<4.19	<4.19	<4.19	<4.19	<4.19
31.6	49	> 64.6	4.37	> 64.6	32.4	8.13	O=C1CCCc2cc(C3=NCc4cccc(Cl)c4-n4cccc43)ccc21 [Compound 61, 6-(10-chloro-6H-pyrrolo[1,2-a][1,4]benzodiazepin-4-yl)-3,4-dihydro-1 (2H)-naphthalenone]							
							Cl.Clc1cc(Cl)c2c(c1)-n1cccc1C(c1ccc3c(c1)CCO3)NC2 (stereo not shown) [Compound 31, 7,9-dichloro-4-(2,3-dihydro-5-benzofuranyl)-5,6-dihydro-4H-pyrrolo[1,2-a][1,4]-benzodiazepine .HCl]	<4.19	6.00	5.52	<4.19	5.80	<4.19	<4.19
							Cl.Clc1cc(Cl)c2c(c1)CNC(c1ccc3c(c1)CCO3)c1cccn1-2 (stereo not shown) [Compound 34, 8,10-dichloro-4-(2,3-dihydro-5-benzofuranyl)-5,6-dihydro-4H-pyrrolo[1,2-a][1,4]-benzodiazepine .HCl]	<4.19	5.70	5.70	<4.19	4.96	<4.19	5.52
							Cl.Clc1cc(Cl)c2c(c1)-n1cccc1C(c1ccc3c(c1)CCC3)NC2 (stereo not shown) [Compound 19, 7,9-dichloro-4-(2,3-dihydro-1H-inden-5-yl)-5,6-dihydro-4H-pyrrolo[1,2-a][1,4]-benzodiazepine .HCl]	<4.19	6.00	5.40	<4.19	5.63	4.96	5.70
							Clc1cccc2c1CNC(c1ccc3c(c1)OCO3)c1cccn1-2 (stereo not shown) [Compound 3, 4-(1,3-benzodioxol-5-yl)-7-chloro-5,6-dihydro-4H-pyrrolo[1,2-a][1,4]benzo-diazepine]	<4.19	4.47	4.91	<4.19	4.71	<4.19	4.30
							Br.COc1cccc2c1CNC(c1ccc3c(c1)OCO3)c1cccn1-2 (stereo not shown) [Compound 8, 4-(1,3-benzodioxol-5-yl)-5,6-dihydro-7-methoxy-4H-pyrrolo[1,2-a][1,4]benzo-diazepine .HBr]	<4.19	5.22	4.66	<4.19	<4.19	<4.19	<4.19
							Cl.Clc1cccc2c1CNC(c1ccc3c(c1)CCO3)c1cccn1-2 (stereo not shown) [Compound 26, 7-chloro-4-(2,3-dihydro-5-benzofuranyl)-5,6-dihydro-4H-pyrrolo[1,2-a][1,4]benzo-diazepine .HCl]	<4.19	6.25	6.00	4.25	5.70	4.85	<4.19
							FC1(F)CCc2cc(C3=NCc4cccc(Cl)c4-n4cccc43)ccc21 [Compound 68, 10-chloro-4-(1,1-difluoro-2,3-dihydro-1H-inden-5-yl)-6H-pyrrolo[1,2-a][1,4]benzo-diazepine]	<4.19	<4.19	<4.19	<4.19	<4.19	4.19	<4.19
							Cl.Fc1cccc2c1CNC(c1ccc3c(c1)CCOC3)c1cccn1-2 (stereo not shown) [Compound 29, 4-(3,4-dihydro-1H-2-benzopyran-6-yl)-7-fluoro-5,6-dihydro-4H-pyrrolo[1,2-a]-[1,4]benzodiazepine .HCl]	<4.19	4.44	<4.19	<4.19	<4.19	<4.19	<4.19
